Results from ChEMBL document CHEMBL1132200, “Novel adrenoceptor antagonists with a tricyclic pyrrolodipyridazine skeleton” (J Med Chem, 1999).

Tests used:
[1] = biological target: T1, Alpha-1D adrenergic receptor (Homo sapiens, UniProt P25100); test: The compound was tested for binding affinity on [3H]- prazosin as specific ligand on Human cloned alpha-1D adrenergic receptor in CHO cells; assay type: cell-based
T1 sequence (P25100 whole entry): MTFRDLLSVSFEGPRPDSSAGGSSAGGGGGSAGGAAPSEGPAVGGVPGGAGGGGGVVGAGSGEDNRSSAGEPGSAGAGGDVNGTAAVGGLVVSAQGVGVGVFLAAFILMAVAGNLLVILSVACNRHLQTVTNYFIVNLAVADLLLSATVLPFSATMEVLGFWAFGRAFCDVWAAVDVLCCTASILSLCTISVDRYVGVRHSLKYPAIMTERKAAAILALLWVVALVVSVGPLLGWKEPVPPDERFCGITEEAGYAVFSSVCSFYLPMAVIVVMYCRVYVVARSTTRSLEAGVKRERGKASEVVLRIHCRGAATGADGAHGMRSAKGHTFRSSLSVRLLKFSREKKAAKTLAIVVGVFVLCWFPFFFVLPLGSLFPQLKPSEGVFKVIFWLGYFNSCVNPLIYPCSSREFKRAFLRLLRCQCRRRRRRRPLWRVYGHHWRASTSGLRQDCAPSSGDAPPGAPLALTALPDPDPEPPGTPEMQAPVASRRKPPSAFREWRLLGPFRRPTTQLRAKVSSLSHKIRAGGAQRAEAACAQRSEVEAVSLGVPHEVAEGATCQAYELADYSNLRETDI

[2] = biological target: T2, Alpha-1B adrenergic receptor (Homo sapiens, UniProt P35368); test: The compound was tested for binding affinity on [3H]- prazosin as specific ligand on Human cloned alpha-1B adrenergic receptor in CHO cells; assay type: cell-based
T2 sequence (P35368 whole entry): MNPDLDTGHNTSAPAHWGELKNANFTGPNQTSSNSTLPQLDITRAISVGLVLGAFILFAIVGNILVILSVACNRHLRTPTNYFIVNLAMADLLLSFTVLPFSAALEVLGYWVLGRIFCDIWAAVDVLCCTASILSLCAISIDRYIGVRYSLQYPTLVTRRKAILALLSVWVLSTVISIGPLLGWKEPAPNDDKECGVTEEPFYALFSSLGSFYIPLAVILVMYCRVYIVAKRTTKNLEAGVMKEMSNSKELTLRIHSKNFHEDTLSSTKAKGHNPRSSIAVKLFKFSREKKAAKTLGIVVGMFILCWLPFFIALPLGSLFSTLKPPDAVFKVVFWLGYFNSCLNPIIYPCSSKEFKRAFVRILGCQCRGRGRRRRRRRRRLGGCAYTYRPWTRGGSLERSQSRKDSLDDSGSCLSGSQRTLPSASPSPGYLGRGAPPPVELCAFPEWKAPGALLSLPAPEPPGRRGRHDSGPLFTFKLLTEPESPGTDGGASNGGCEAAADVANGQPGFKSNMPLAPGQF

[3] = biological target: T3, Alpha-1A adrenergic receptor (Homo sapiens, UniProt P35348); test: The compound was tested for binding affinity on [3H]- prazosin as specific ligand on Human cloned alpha-1A adrenergic receptor expressed in CHO cells; assay type: cell-based
T3 sequence (P35348 whole entry): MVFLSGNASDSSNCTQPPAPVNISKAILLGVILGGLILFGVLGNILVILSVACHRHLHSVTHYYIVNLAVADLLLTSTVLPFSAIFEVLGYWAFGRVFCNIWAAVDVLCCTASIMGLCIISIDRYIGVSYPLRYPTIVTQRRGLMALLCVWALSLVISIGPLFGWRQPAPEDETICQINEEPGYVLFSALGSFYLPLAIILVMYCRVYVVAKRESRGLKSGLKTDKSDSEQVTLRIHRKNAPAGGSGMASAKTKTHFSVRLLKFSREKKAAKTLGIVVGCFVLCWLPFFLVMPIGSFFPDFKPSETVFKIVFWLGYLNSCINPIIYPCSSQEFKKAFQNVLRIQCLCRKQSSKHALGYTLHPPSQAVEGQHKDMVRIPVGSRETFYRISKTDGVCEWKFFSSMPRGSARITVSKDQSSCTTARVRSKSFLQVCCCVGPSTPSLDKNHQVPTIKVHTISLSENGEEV

[4] = biological target: T4, Adrenergic receptor alpha-1 (Rattus norvegicus, UniProt P15823+P23944+P43140); test: The compound was tested for binding affinity on [3H]- prazosin as specific ligand on alpha-1 adrenergic receptor cells in rat cerebral cortex; assay type: tissue-based
T4 sequence (P15823 whole entry): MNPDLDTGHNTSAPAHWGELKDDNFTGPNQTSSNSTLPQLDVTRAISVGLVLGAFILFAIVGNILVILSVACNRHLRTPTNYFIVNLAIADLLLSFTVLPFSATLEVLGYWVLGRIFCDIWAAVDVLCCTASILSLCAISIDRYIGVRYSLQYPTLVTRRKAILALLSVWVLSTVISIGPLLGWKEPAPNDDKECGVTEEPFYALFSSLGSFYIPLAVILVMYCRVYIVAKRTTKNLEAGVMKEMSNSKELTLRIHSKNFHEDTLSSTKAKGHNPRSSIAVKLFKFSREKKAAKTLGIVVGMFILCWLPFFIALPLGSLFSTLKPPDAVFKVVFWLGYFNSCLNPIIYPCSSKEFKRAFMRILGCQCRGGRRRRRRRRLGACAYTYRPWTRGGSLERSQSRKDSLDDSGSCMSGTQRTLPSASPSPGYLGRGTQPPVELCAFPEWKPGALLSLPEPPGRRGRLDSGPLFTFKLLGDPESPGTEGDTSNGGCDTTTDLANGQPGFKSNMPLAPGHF
T4 sequence (P23944 whole entry): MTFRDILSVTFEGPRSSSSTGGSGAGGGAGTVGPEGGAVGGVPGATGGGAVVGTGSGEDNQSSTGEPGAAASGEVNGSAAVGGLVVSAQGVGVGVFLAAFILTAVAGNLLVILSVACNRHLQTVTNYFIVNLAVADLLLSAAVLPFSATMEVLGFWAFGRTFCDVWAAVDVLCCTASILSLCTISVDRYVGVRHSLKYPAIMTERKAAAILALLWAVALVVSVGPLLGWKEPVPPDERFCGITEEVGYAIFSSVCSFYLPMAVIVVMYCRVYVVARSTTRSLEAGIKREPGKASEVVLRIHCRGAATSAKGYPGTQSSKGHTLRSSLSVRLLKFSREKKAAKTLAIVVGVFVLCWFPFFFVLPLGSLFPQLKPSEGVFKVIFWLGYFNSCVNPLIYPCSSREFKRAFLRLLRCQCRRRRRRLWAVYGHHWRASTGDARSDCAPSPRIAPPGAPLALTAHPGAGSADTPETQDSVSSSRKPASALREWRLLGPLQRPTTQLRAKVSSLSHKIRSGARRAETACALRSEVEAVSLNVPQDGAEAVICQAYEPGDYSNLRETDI
T4 sequence (P43140 whole entry): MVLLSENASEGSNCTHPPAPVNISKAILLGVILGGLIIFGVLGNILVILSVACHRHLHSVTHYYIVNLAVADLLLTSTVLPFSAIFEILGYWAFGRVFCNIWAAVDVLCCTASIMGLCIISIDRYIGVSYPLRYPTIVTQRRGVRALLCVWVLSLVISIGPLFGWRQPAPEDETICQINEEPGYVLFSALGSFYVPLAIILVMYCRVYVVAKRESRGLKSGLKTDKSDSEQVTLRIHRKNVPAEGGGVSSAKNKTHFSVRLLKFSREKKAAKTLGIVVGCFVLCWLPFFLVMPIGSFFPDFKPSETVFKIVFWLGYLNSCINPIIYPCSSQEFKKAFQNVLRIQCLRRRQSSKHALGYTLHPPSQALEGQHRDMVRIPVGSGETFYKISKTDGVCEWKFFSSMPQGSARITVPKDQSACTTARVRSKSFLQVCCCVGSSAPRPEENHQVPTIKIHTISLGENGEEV

[5] = Ratio of the binding affinities against 5-HT1A and alpha-1-adrenoceptor from rat brain membranes.; assay type: cell membranes; conditions: Membrane
[6] = biological target: T5, 5-hydroxytryptamine receptor 1A (Rattus norvegicus, UniProt P19327); test: The compound was tested for binding affinity on [3H]8-OH-DPAT as specific ligand on 5-hydroxytryptamine 1A receptor in rat hippocampus; assay type: tissue-based
T5 sequence (P19327 whole entry): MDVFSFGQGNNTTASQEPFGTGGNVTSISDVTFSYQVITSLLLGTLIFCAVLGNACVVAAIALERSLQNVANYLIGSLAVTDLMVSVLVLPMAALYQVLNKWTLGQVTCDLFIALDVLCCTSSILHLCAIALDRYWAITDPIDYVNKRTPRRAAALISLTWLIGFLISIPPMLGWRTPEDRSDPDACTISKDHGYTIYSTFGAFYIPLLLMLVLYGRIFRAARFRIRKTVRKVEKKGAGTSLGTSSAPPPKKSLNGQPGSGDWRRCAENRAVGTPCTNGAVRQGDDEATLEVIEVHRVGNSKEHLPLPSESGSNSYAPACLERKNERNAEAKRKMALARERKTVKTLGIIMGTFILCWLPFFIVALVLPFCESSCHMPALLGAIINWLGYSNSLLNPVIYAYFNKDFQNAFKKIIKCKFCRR

Ki [1] [nM]	Ki [2] [nM]	Ki [3] [nM]	Ki [4] [nM]	Ratio [5]	Ki [6] [nM]	SMILES
0.93	22.1	4.75	24.6	5.01	123	COc1ccccc1N1CCN(CCn2nc(-c3ccccc3)c(C(C)=O)c(N)c2=O)CC1
6.56	15.6	1.93	129.2	0.16	21.2	Cn1nc(Cl)c2cn3nc(NCCN4CCN(c5ccccc5)CC4)ccc3c2c1=O
11.9	13.6	5.93	54.6	1.03	56.5	Cn1nc(Cl)c2cn3nc(NCCN4CCN(c5ccccc5Cl)CC4)ccc3c2c1=O
3.04	15.2	1.1	73.3	0.22	16.3	COc1ccccc1N1CCN(CCNc2ccc3c4c(=O)n(C)nc(Cl)c4cn3n2)CC1
